According to patent US20230115176A1 (Ra Pharmaceuticals, Inc., priority 2019, published 2023):
pIC50, pKd: −log10 of the molar value. In brackets after ≈: the same amount, converted by molar mass.

target: T1, Human C5 (Homo sapiens, UniProt P01031); experiment: Red blood cell (RBC) hemolysis assay, luminescent (Example 24, Table 29); assay type: cell-based; details: sheep EA cells, […] C5-depleted human serum, 0.5 nM human C5, 1 hour at 37° C., luminescence (Table 29)
T1 construct: purchased Complement Technology
Excerpt: Numbers in parenthesis following the compound number indicate alternate enantiomers (as distinguished by retention time during chromatographical separation).

T1 sequence (P01031 19-1676): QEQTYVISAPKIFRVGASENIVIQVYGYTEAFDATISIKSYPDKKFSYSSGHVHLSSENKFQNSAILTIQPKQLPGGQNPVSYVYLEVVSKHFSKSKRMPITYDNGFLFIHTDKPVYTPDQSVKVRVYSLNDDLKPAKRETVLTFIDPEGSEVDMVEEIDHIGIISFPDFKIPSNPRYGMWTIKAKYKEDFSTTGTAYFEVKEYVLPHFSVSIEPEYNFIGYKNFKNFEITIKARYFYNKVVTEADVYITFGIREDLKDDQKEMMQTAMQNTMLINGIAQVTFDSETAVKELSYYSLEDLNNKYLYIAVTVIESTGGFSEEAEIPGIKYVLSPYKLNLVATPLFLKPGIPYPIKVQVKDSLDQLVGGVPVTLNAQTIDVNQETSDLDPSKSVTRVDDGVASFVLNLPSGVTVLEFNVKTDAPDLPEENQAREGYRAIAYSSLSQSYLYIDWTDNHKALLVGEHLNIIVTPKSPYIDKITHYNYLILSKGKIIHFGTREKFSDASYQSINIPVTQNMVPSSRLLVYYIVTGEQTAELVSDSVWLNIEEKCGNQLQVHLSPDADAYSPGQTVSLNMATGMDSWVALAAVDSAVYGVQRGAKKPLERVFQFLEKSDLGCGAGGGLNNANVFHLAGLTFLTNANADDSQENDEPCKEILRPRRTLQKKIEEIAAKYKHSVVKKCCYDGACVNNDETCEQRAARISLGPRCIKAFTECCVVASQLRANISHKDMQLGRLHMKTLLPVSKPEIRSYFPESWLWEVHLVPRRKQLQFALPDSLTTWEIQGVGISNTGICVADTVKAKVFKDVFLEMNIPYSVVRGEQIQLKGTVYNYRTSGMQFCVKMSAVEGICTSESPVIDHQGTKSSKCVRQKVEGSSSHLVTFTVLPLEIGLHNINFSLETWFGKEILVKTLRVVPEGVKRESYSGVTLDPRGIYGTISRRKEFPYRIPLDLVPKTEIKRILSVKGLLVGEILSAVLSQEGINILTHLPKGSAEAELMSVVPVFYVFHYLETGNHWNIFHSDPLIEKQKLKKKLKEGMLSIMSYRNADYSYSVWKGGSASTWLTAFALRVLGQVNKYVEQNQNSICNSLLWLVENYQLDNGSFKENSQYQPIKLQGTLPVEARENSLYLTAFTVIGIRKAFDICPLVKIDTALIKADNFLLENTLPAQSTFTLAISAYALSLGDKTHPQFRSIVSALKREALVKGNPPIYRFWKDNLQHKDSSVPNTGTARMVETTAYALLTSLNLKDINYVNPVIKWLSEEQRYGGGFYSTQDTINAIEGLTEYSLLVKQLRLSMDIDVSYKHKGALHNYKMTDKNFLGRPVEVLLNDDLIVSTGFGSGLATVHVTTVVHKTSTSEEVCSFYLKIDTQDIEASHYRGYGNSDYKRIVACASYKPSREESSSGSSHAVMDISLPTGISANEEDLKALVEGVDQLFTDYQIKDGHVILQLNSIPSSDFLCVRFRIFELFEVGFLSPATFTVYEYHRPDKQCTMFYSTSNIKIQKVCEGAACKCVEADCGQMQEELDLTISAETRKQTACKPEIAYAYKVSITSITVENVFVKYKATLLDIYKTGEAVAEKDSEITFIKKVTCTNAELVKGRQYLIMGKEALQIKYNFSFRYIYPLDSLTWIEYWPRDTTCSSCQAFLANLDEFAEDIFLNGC

Row | SMILES | pIC50
1 | CCCCCOc1cc(N2CC[C@H](C)N(Cc3cccc4c3ccn4CC(=O)N3CCO[C@@H](COC)C3)C2=O)ccc1OC [SC0009] | 7.73
2 | CCCCCOc1cc(N2CC[C@H](C)N(Cc3cccc4c3ccn4CC(=O)N3CCCC3)C2=O)ccc1OC [SC0001] | 8.08
3 | CCCCCOc1cc(N2CC[C@H](C)N(Cc3cccc4c3ccn4CC(=O)N3CCO[C@H](COC)C3)C2=O)ccc1OC [SC0002] | 8.06
4 | C=C1CN(Cc2cc(F)ccc2OC)C(=O)N(c2ccc(OC)c(OCCCCC)c2)C1 [SC0060] | 7.65
5 | CCCCCOc1cc(N2CC[C@H](C)N(Cc3cccc4c3ccn4CC(=O)N(C)C)C2=O)ccc1OC [SC0008] | 7.73
6 | CCCCCOc1cc(N2CC(COCC(=O)N(C)CCO)CN(Cc3cc(F)ccc3OC)C2=O)ccc1OC (stereo not shown) [SC0026] | 7.22
7 | CCCCCOc1cc(N2CC[C@H](C)N(Cc3cccc4c3ccn4CC(=O)N3CCOC(CN(C)C)C3)C2=O)ccc1OC (stereo partly shown) [SC0007] | 7.87
8 | CCCCCOc1cc(N2CC(Cn3cncn3)CN(Cc3cc(F)ccc3OC)C2=O)ccc1OC (stereo not shown) [SC0035] | 6.91
9 | CCCCCOc1cc(N2CC[C@H](C)N(Cc3cccc4c3ccn4CC(=O)N3CCCOCC3)C2=O)ccc1OC [SC0004] | 7.98
10 | CCCCCOc1cc(N2CC3(CNC3)CN(Cc3cc(F)ccc3OC)C2=O)ccc1OC [SC0070] | 6.40
11 | CCCCCOc1cc(N2CC(Cn3cc(-c4cnccn4)cn3)CN(Cc3cc(F)ccc3OC)C2=O)ccc1OC (stereo not shown) [SC0032] | 7.00
12 | CCCCCOc1cc(N2CC(C(=O)Nc3ncco3)CN(Cc3cc(F)ccc3OC)C2=O)ccc1OC (stereo not shown) [SC0050] | 7.12
13 | CCCCCOc1cc(N2CC(C)CN(Cc3ccc(CC(=O)N(C)C)cc3OC)C2=O)ccc1OC (stereo not shown) [SC0017] | 7.55
14 | CCCCCOc1cc(N2CC(C(=O)N3CCOCC3)CN(Cc3cc(F)ccc3OC)C2=O)ccc1OC (stereo not shown) [SC0051] | 6.96
15 | CCCCCOc1cc(N2CC(Cn3cc(C)cn3)CN(Cc3cc(F)ccc3OC)C2=O)ccc1OC (stereo not shown) [SC0031] | 7.02
16 | CCCCCOc1cc(N2CC(CO)CN(Cc3cc(F)ccc3OC)C2=O)ccc1OC (stereo not shown) [SC0016(1)] | 8.08
17 | CCCCCOc1cc(N2CC[C@H](C)N(Cc3cccc4c3ccn4CC(=O)N3CCOC(COC)C3)C2=O)ccc1OC (stereo partly shown) [SC0005] | 7.95
18 | CCCCCOc1cc(N2CC(Cn3cc(-c4ccccn4)nn3)CN(Cc3cc(F)ccc3OC)C2=O)ccc1OC (stereo not shown) [SC0038] | 6.89
19 | CCCCCOc1cc(N2CC(Cn3cc4ccccc4n3)CN(Cc3cc(F)ccc3OC)C2=O)ccc1OC (stereo not shown) [SC0041] | 6.60
20 | CCCCCOc1cc(N2CC(CNC(=O)COC)CN(Cc3cc(F)ccc3OC)C2=O)ccc1OC (stereo not shown) [SC0056] | 7.37
21 | CCCCCOc1cc(N2CC[C@H](C)N(Cc3cccc4c3ccn4CC(=O)N(C)c3cccnc3)C2=O)ccc1OC [SC0011] | 7.60

target: human C5 complement protein (Homo sapiens, UniProt P01031); experiment: Surface plasmon resonance (SPR), immobilized human C5, 37° C. (Example 18, Table 24); assay type: binding; details: lowest value obtained where a range of concentrations was analyzed
Sequence (P01031 19-1676): as above

Row | SMILES | pKd
22 | CCCCCOc1cc(N2CCCN(Cc3cccc4c3c(I)cn4CC(=O)N(C)C)C2=O)ccc1OC [CU0508] | 11.05
23 | COc1cc(CC(=O)N2CCOCC2)ccc1CN1CCCN(c2ccc(OC)c(OCCCCC3CC3)c2)C1=O [CU0598] | 9.13
24 | CCCCCOc1cc(N2CCCN(Cc3ccc(CC(=O)N4CCCC4C)cc3OC)C2=O)ccc1OC (stereo not shown) [CU0632] | 9.06
25 | COc1cc(CCNC(C)=O)ccc1CN1CCCN(c2ccc(OC)c(OCCCC3CC3)c2)C1=O [CU0668] | 8.60
26 | COc1cc(CC(=O)N2CCOCC2)ccc1CN1CCCN(c2ccc(OC)c(OCCCC3CC3(F)F)c2)C1=O (stereo not shown) [CU0601] | 9.88
27 | CCCCCOc1cc(N2CCCN(Cc3ccc(CCNC(C)=O)cc3OC)C2=O)ccc1OC [CU0695] | 8.87
28 | COc1cc(CNC(=O)c2cocn2)ccc1CN1CCCN(c2ccc(OC)c(OCCCCC3CC3)c2)C1=O [CU0571] | 9.32
29 | COc1ccc(N2CCCN(Cc3ccnc4c3ccn4CC(=O)N(C)C)C2=O)cc1OCCC[C@H]1C[C@H]1C (racemic) [CU0737] | 8.09
30 | CCCCCOc1cc(N2CCCN(Cc3ccnc4c3c(Cl)cn4CC(=O)N3CCO[C@@H](CN(C)C)C3)C2=O)ccc1OC [CU0519] | 9.54
31 | COc1cc(CN)ccc1CN1CCCN(c2ccc(OC)c(OCCCC3CCC3)c2)C1=O [CU0708] | 10.74
32 | CCCCCOc1cc(N2CCCN(Cc3ccnc4c3c(Cl)cn4CC(=O)N3CC[C@H](OC)C3)C2=O)ccc1OC [CU0504] | 9.60
33 | CCCCCOc1cc(N2CCCN(Cc3ccc(CNC(=O)c4ccco4)cc3OC)C2=O)ccc1OC [CU0597] | 9.94
34 | CCCCCOc1cc(N2CCCN(Cc3ccc(CNC4CCN(C)C4=O)cc3OC)C2=O)ccc1OC (stereo not shown) [CU0626] | 8.98
35 | CCCCCOc1cc(N2CCCN(Cc3ccnc4c3c(Cl)cn4CC(=O)N3CCOC3)C2=O)ccc1OC [CU0509] | 10.16
36 | CCCCCOc1cc(N2CCCN(Cc3ccnc4c3c(Cl)cn4CC(=O)N(C)OC)C2=O)ccc1OC [CU0527] | 10.39
37 | CCCCCOc1cc(N2CCCN(Cc3ccnc4c3c(Cl)cn4CC(=O)NC3CCOC3)C2=O)ccc1OC (stereo not shown) [CU0561] | 9.85
38 | COc1cc(CCN2CCCC2)ccc1CN1CCCN(c2ccc(OC)c(OCCCC3CC3)c2)C1=O [CU0662] | 8.94

Row | SMILES | pKd
39 | COc1cc(CN)ccc1CN1CCCN(c2ccc(OC)c(OCCCCC3CC3)c2)C1=O [CU0686] | 9.21
40 | COc1ccc(N2CCCN(Cc3cccc4c3ccn4CC(=O)N(C)C)C2=O)cc1OCCC[C@H]1C[C@@H]1C (racemic) [CU0681] | 8.66
41 | CCCCCOc1cc(N2CCCN(Cc3ccnc4c3c(Cl)cn4CC(=O)N(C)O)C2=O)ccc1OC [CU0514] | 10.03
42 | COc1cc(CNC(=O)c2cocn2)ccc1CN1CCCN(c2ccc(OC)c(OCCCC3CC3)c2)C1=O [CU0537] | 10.41
43 | CCCCCOc1cc(N2CCCN(Cc3ccc(CCNC=O)cc3OC)C2=O)ccc1OC [CU0704] | 8.63
44 | COc1cc(CN)ccc1CN1CCCN(c2ccc(OC)c(OCCCC3CC3)c2)C1=O [CU0657] | 8.88
45 | COc1ccc(N2CCCN(Cc3ccnc4c3c(Cl)cn4CC(=O)N(C)C)C2=O)cc1OCCCC1CC1 [CU0530] | 10.29
46 | COc1cc(CNC(=O)c2cocn2)ccc1CN1CCCN(c2ccc(OC)c(OCCCC3CCC3)c2)C1=O [CU0565] | 10.62
47 | COc1cc(CNC(=O)OC(C)(C)C)ccc1CN1CCCN(c2ccc(OC)c(OCCCC3CC3)c2)C1=O [CU0669] | 10.39
48 | CCCCCOc1cc(N2CCCN(Cc3ccc(CCN4[C@H](C)CC[C@@H]4C)cc3OC)C2=O)ccc1OC [CU0690] | 8.77
49 | CCCCCOc1cc(N2CCCN(Cc3ccnc4c3c(Cl)cn4CCO)C2=O)ccc1OC [CU0576] | 9.66
50 | COc1ccc(N2CCCN(Cc3ccnc4c3c(Cl)cn4CC(=O)N(C)C)C2=O)cc1OCCCC(F)(F)C(F)(F)F [CU0502] | 9.49
51 | COc1cc(CCN2CCCC2)ccc1CN1CCCN(c2ccc(OC)c(OCCCCC3CC3)c2)C1=O [CU0718] | 9.61
52 | CCCCCOc1cc(N2CCCN(Cc3ccnc4c3c(Cl)cn4CC(=O)NO)C2=O)ccc1OC [CU0575] | 9.52
53 | CCCCCOc1cc(N2CCCN(Cc3ccnc4c3c(I)cn4CC(=O)N(C)C)C2=O)ccc1OC [CU0535] | 10.28
54 | COc1cc(CCN2CCCC2)ccc1CN1CCCN(c2ccc(OC)c(OCCCC3CCC3)c2)C1=O [CU0699] | 10.11
55 | C#CC(C)NC(=O)Cn1cc(Cl)c2c(CN3CCCN(c4ccc(OC)c(OCCCCC)c4)C3=O)ccnc21 (stereo not shown) [CU0572] | 10.13

tested on: not listed separately; experiment: Kinetic solubility in PBS pH 7.4, HPLC-UV (Example 21, Table 27); assay type: physicochemical; details: phosphate buffered saline, aqueous buffer, kinetic from dmso stock, 0.5 M PBS, shaken minimum 24 h at approximately 25° C., HPLC-UV 270 nm
In short: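 10 mM DMSO stock diluted into 0.05 M PBS pH 7.4 (5% DMSO final), in triplicate, shaken ≥24 h at ~25 °C, then filtered by centrifugation. Supernatant concentration by HPLC-UV at 270 nm against external DMSO standards (15.6–500.0 μM).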

Row | SMILES | solubility kinetic [µM]
56 | COc1cc(CC(=O)N2CCOCC2)ccc1CN1CCCN(c2ccc(OC)c(OCCCCC3CC3)c2)C1=O [CU0598] | < 10
57 | CCCCCOc1cc(N2CC[C@H](C)N(Cc3cccc4c3ccn4CC(=O)N3CCO[C@@H](COC)C3)C2=O)ccc1OC [SC0009] | 167 (≈ 101 µg/mL)
58 | CCCCCOc1cc(N2CC[C@H](C)N(Cc3cccc4c3ccn4CC(=O)N3CCCC3)C2=O)ccc1OC [SC0001] | 66 (≈ 36.1 µg/mL)
59 | CCCCCOc1cc(N2CC[C@H](C)N(Cc3cccc4c3ccn4CC(=O)N3CCO[C@H](COC)C3)C2=O)ccc1OC [SC0002] | 111 (≈ 67.4 µg/mL)
60 | C=C1CN(Cc2cc(F)ccc2OC)C(=O)N(c2ccc(OC)c(OCCCCC)c2)C1 [SC0060] | < 10
61 | CCCCCOc1cc(N2CC[C@H](C)N(Cc3cccc4c3ccn4CC(=O)N(C)C)C2=O)ccc1OC [SC0008] | 103 (≈ 53.6 µg/mL)
62 | CCCCCOc1cc(N2CC[C@H](C)N(Cc3cccc4c3ccn4CC(=O)N3CCOC(CN(C)C)C3)C2=O)ccc1OC (stereo partly shown) [SC0007] | 445 (≈ 276 µg/mL)
63 | CCCCCOc1cc(N2CC(C)CN(Cc3ccc(CC(=O)N(C)C)cc3OC)C2=O)ccc1OC (stereo not shown) [SC0017] | 398 (≈ 204 µg/mL)
64 | CCCCCOc1cc(N2CC[C@H](C)N(Cc3cccc4c3ccn4CC(=O)N(C)c3cccnc3)C2=O)ccc1OC [SC0011] | 43 (≈ 25.1 µg/mL)
